Patent US9382243B2, “Azabenzimidazole tetrahydropyran derivatives” (Merck Sharp & Dohme Corp., priority 2012, dated 2016)

Tests used:
ob/ob and db/db mice = details: following 8 weeks of administration; cited from earlier work
[1] = target: recombinant human AMPK complex 1 (containing α1β1γ1) (Homo sapiens, UniProt Q13131+Q9Y478); assay: AMPKSAMSF in vitro AMPK activation assay, complex 1; assay type: biochemical; details: for Emax: 10-point titration, expressed as % maximum AMP activation; for EC50: inflection point reflecting 50% of the maximum activation, table for human AMPK Complex 1
Protocol: The recombinant human AMPK complex 1 (containing α1β1γ1) or AMPK complex 7 (containing α2β1γ1) was obtained from baculovirus expression system. Recombinant viruses were generated by cotransfection of AMPK/pBacPak9 clones with Baculogold baculovirus DNA (Pharmingen) in spodoptera frugiperda 21 cells according to the manufacturer's instructions. Each round of virus amplification was performed for 5 days in Grace's medium containing 10% serum. Virus that had been subjected to three rounds of amplification was used for all protein production procedures. To express the AMPK complex, sf21 cells were adapted to serum free medium (SF900 II, Invitrogen) by sequential dilution from serum containing stocks into SF900II medium and maintained in shaker flasks at 90 rpm at 27° C. The recombinant AMPK enzyme complex was produced by triple infection, one recombinant virus for each of the subunits, in sf21 cells under serum free conditions. Cells were infected in log phase, 1×10^6 cells/ml, at a multiplicity of infection of ˜5. Cells were harvested by centrifugation at 10,000×g for 15 minutes after 72 hours of infection with viruses. The insect cell pellet from 2 liters of culture was resuspended in 50 ml lysis buffer (20 mM Tris-HCl, 50 mM NaCl, 50 mM NaF, 30 mM Na PPi, 0.25 M sucrose, 10 mM ZnCl2, 2 mM DTT, 0.4 mg/ml digitonin) and subjected to two cycles of freeze-thaw lysis in a dry-ice ethanol bath. Insoluble material was removed by centrifugation at 10,000×g and the supernatant was fractionated with use of polyethylene glycol (PEG). The protein fraction precipitating between 2.5 and 6% PEG was used for further purification using a Blue-Sepharose step (Zhou et al, J. Clin. Invest. 108, 1167-1174, 2001).
The in vitro AMPK activation assay is performed in a volume of 30 μl in a 384-well plate. Enzyme reactions were assembled in the microtiter plate by adding 15 μl of 2× enzyme in assay buffer (20 mM HEPES, pH 7.3, 5 mM MgCl2, 3 mM DTT, 0.01% Brij 35 and CamK Kinase, to activate AMPK) to wells which contained either DMSO or compound. The reaction was initiated with the addition of 15 μl 2× substrate mixture containing 200 μM ATP, and 3.0 μM fluorescently labeled SAMS (5-FAM-HMRSAMSGLHLVKRR-COOH) in assay buffer. After 45-minute incubation at 25° C., the reaction was stopped by the addition of 70 μl stop buffer (100 mM HEPES, pH 7.3, 40 mM EDTA, 0.015% Brij 35). Phosphorylated 5-FAM SAMS product is assessed using a Caliper EZ Reader LabChip microfluidics reader. Product conversion is determined by calculating the peak heights of the substrate and product and reporting the product/(product+substrate) peak ratio. The 10-point titration data were expressed as % maximum AMP activation. The results were plotted using 4 parameter fit and the inflection point reflecting 50% of the maximum activation was reported as the EC50.

recombinant human AMPK complex 1 (containing α1β1γ1), sequence (Q13131 whole entry): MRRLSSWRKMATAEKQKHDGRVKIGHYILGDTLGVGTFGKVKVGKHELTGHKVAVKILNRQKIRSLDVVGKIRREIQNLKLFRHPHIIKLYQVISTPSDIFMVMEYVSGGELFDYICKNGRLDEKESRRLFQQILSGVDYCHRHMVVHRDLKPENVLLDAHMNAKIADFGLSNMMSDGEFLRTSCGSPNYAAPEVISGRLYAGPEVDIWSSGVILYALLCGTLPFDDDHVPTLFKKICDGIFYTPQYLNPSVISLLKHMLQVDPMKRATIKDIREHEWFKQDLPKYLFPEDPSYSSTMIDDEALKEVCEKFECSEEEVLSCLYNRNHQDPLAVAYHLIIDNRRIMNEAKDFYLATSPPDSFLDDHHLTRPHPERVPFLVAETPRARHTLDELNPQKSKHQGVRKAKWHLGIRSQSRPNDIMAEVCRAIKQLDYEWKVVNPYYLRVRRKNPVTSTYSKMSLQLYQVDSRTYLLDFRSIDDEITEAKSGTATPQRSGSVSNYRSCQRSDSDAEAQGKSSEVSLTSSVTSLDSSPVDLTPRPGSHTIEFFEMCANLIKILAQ
recombinant human AMPK complex 1 (containing α1β1γ1), sequence (Q9Y478 whole entry): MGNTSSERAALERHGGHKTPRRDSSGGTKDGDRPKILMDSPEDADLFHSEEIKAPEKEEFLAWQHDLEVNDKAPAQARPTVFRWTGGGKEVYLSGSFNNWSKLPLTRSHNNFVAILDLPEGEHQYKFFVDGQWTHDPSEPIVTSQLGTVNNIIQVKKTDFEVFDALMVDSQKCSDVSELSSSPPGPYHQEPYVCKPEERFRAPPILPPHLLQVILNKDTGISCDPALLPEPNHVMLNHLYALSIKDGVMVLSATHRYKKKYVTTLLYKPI
recombinant human AMPK complex 1 (containing α1β1γ1), sequence (P54619 whole entry partner): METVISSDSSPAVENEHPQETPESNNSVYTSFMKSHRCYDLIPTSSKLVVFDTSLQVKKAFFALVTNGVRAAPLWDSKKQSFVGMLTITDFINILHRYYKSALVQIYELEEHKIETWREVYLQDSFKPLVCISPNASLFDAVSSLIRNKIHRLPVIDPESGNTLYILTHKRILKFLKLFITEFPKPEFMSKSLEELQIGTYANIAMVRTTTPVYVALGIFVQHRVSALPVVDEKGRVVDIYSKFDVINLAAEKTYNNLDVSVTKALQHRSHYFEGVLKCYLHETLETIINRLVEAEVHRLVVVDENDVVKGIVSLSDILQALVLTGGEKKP

In the case of `NC(=O)c1ncn([C@@H]2O[C@H](CO)[C@@H](O)[C@H]2O)c1N` [AICAR], the blood glucose reduction (ob/ob and db/db mice) is given as 35%.

`CC(CO)Oc1ccc(-c2nc3nc(O[C@H]4CO[C@H](CO)[C@@H](O)C4)[nH]c3cc2Cl)cc1` (stereo partly drawn) [Example 1, (2R,3S,5R)-5-((6-chloro-5-(4-((1-hydroxypropan-2-yl)oxy)phenyl)-1H-imidazo[4,5-b]pyridin-2-yl)oxy)-2-(hydroxymethyl)tetrahydro-2H-pyran-3-ol] gave an Emax [1] of 574% and an EC50 [1] of 0.128 µM.

Molecule `OC[C@H]1OC[C@H](Oc2nc3nc(-c4ccc(N5CC[C@@H](O)C5)cc4)c(Cl)cc3[nH]2)C[C@@H]1O` [Example 34] has an Emax [1] of 367% and an EC50 [1] of 0.019 µM.

Work on `OC[C@H]1OC[C@H](Oc2nc3nc(-c4ccc(N5CC[C@@H](F)C5)cc4)c(Cl)cc3[nH]2)C[C@@H]1O` [Example 35] yielded an Emax [1] of 489% and an EC50 [1] of 0.018 µM.

With `OC[C@H]1OC[C@H](Oc2nc3nc(-c4ccc(N5CC[C@H](F)C5)cc4)c(Cl)cc3[nH]2)C[C@@H]1O` [Example 37] the Emax [1] was 473% and the EC50 [1] was 0.022 µM.

`CC(C)(O)c1ccc(-c2ccc(-c3nc4nc(O[C@H]5CO[C@H](CO)[C@@H](O)C5)[nH]c4cc3Cl)cc2)cc1` [Example 39, (2R,3 S,5R)-5-((6-chloro-5-(4′-(2-hydroxypropan-2-yl)-[1,1′-biphenyl]-4-yl)-1H-imidazo[4,5-b]pyridin-2-yl)oxy)-2-(hydroxymethyl)tetrahydro-2H-pyran-3-ol] gave an Emax [1] of 379% and an EC50 [1] of 0.004 µM.

In the case of `OC[C@H]1OC[C@H](Oc2nc3nc(-c4ccc(-c5ccc(-n6cccn6)cc5)cc4)c(Cl)cc3[nH]2)C[C@@H]1O` [Example 45], the Emax [1] is reported as 417% and the EC50 [1] is reported as 0.003 µM.

`OC[C@H]1OC[C@H](Oc2nc3nc(-c4ccc(-c5ccc(-c6ccn[nH]6)cc5)cc4)c(Cl)cc3[nH]2)C[C@@H]1O` [Example 46] gave an Emax [1] of 619% and an EC50 [1] of 0.015 µM.

Work on `OC[C@H]1OC[C@H](Oc2nc3nc(-c4ccc(-c5ccc(-n6nccn6)cc5)cc4)c(Cl)cc3[nH]2)C[C@@H]1O` [Example 47] yielded an Emax [1] of 590% and an EC50 [1] of 0.025 µM.

Molecule `OC[C@H]1OC[C@H](Oc2nc3nc(-c4ccc(-c5ccc(-n6ccnn6)cc5)cc4)c(Cl)cc3[nH]2)C[C@@H]1O` [Example 48] has an Emax [1] of 615% and an EC50 [1] of 0.002 µM.

In the case of `NC(c1ccc(-c2ccc(-c3nc4nc(O[C@H]5CO[C@H](CO)[C@@H](O)C5)[nH]c4cc3Cl)cc2)cc1)C(F)(F)F` (stereo partly drawn) [Example 49, (2R,3 S,5R)-5-((5-(4′-(1-amino-2,2,2-trifluoroethyl)-[1,1′-biphenyl]-4-yl)-6-chloro-1H-imidazo[4,5-b]pyridin-2-yl)oxy)-2-(hydroxymethyl)tetrahydro-2H-pyran-3-ol], the Emax [1] is reported as 464% and the EC50 [1] is reported as 0.009 µM.

`O=S(=O)(CC1COC1)c1ccc(-c2ccc(-c3nc4nc(O[C@H]5CO[C@H](CO)[C@@H](O)C5)[nH]c4cc3Cl)cc2)cc1` [Example 54] gave an Emax [1] of 767% and an EC50 [1] of 0.009 µM.

Molecule `O=S(=O)(c1ccc(-c2ccc(-c3nc4nc(O[C@H]5CO[C@H](CO)[C@@H](O)C5)[nH]c4cc3Cl)cc2)cc1)C1COC1` [Example 55] has an Emax [1] of 752% and an EC50 [1] of 0.008 µM.

For `NS(=O)(=O)c1ccc(-c2ccc(-c3nc4nc(O[C@H]5CO[C@H](CO)[C@@H](O)C5)[nH]c4cc3Cl)cc2)cc1` [Example 56], the Emax [1] was 392% and the EC50 [1] was 0.011 µM.

Molecule `O=C(c1ccc(-c2ccc(-c3nc4nc(O[C@H]5CO[C@H](CO)[C@@H](O)C5)[nH]c4cc3Cl)cc2)cc1)N1CC[C@@H](O)C1` [Example 61, (4′-(6-chloro-2-(((3R,5 S,6R)-5-hydroxy-6-(hydroxymethyl)tetrahydro-2H-pyran-3-yl)oxy)-1H-imidazo[4,5-b]pyridin-5-yl)-[1,1′-biphenyl]-4-yl)((R)-3-hydroxypyrrolidin-1-yl)methanone] has an Emax [1] of 568% and an EC50 [1] of 0.036 µM.

`OC[C@H]1OC[C@H](Oc2nc3nc(-c4ccc(-c5ccccc5)cc4)c(Cl)cc3[nH]2)[C@@H](O)[C@@H]1O` [Example 62, (2R,3 S,4S,5 S)-5-((5-([1,1′-biphenyl]-4-yl)-6-chloro-1H-imidazo[4,5-b]pyridin-2-yl)oxy)-2-(hydroxymethyl)tetrahydro-2H-pyran-3,4-diol] gave an Emax [1] of 545% and an EC50 [1] of 0.017 µM.

`CC(C)(O)c1ccc(-c2ccc(-c3nc4nc(O[C@H]5CO[C@H](CO)[C@@H](O)[C@@H]5O)[nH]c4cc3Cl)cc2)cc1` [Example 66] gave an Emax [1] of 410% and an EC50 [1] of 0.013 µM.

With `CS(=O)(=O)c1ccc(-c2ccc(-c3nc4nc(O[C@H]5CO[C@H](CO)[C@@H](O)[C@@H]5O)[nH]c4cc3Cl)cc2)cc1` [Example 67] the Emax [1] was 418% and the EC50 [1] was 0.003 µM.

With `O=C(c1ccc(-c2ccc(-c3nc4nc(O[C@H]5CO[C@H](CO)[C@@H](O)[C@@H]5O)[nH]c4cc3Cl)cc2)cc1)N1CCC(O)CC1` [Example 68] the Emax [1] was 419% and the EC50 [1] was 0.006 µM.

`CC(C)(O)[C@H]1OC[C@H](Oc2nc3cc(Cl)c(-c4ccc(-c5ccccc5)cc4)nc3[nH]2)C[C@@H]1O` [Example 70, (2S,3 S,5R)-5-((5-([1,1′-biphenyl]-4-yl)-6-chloro-1H-imidazo[4,5-b]pyridin-2-yl)oxy)-2-(2-hydroxypropan-2-yl)tetrahydro-2H-pyran-3-ol] showed an Emax [1] of 417% and an EC50 [1] of 0.031 µM.

Work on `CNC(=O)c1ccc(-c2ccc(-c3nc4nc(O[C@H]5CO[C@H](CO)[C@@H](O)C5)[nH]c4cc3Cl)cc2)cc1` [Example 71, 4′-(6-chloro-2-(((3R,5 S,6R)-5-hydroxy-6-(hydroxymethyl)tetrahydro-2H-pyran-3-yl)oxy)-1H-imidazo[4,5-b]pyridin-5-yl)-N-methyl-[1,1′-biphenyl]-4-carboxamide] yielded an Emax [1] of 443% and an EC50 [1] of 0.006 µM.

With `CC1(O)CCN(C(=O)c2ccc(-c3ccc(-c4nc5nc(O[C@H]6CO[C@H](CO)[C@@H](O)C6)[nH]c5cc4Cl)cc3)cc2)CC1` [Example 72] the Emax [1] was 504% and the EC50 [1] was 0.008 µM.

In the case of `O=C(c1ccc(-c2ccc(-c3nc4nc(O[C@H]5CO[C@H](CO)[C@@H](O)C5)[nH]c4cc3Cl)cc2)cc1)N1CCC(O)(C(F)(F)F)CC1` [Example 73], the Emax [1] is reported as 249% and the EC50 [1] is reported as 0.008 µM.

`COC(=O)Nc1ccc(-c2ccc(-c3nc4[nH]c(O[C@H]5CO[C@H](CO)[C@@H](O)C5)nc4cc3Cl)cc2)cc1` [Example 74, Methyl (4′-(6-chloro-2-(((3R,5S,6R)-5-hydroxy-6-(hydroxymethyl)tetrahydro-2H-pyran-3-yl)oxy)-1H-imidazo[4,5-b]pyridin-5-yl)-[1,1′-biphenyl]-4-yl)carbamate] showed an Emax [1] of 460% and an EC50 [1] of 0.025 µM.

Molecule `O=C(Nc1ccc(-c2ccc(-c3nc4nc(O[C@H]5CO[C@H](CO)[C@@H](O)C5)[nH]c4cc3Cl)cc2)cc1)OCC(O)CO` (stereo partly shown) [Example 77] has an Emax [1] of 494% and an EC50 [1] of 0.015 µM.
